Measured values reported in patent publication US7825139B2, “Compounds and methods for selective inhibition of dipeptidyl peptidase-IV” (Forest Laboratories Holdings Limited (BM), priority 2005, dated 2010).

Experiments:
DPP-VIII = molecular target: T1, DPP-VIII (Homo sapiens, UniProt Q6V1X1); assay: DPP-VIII IC50 assay (Ala-Pro AMC), selectivity versus DPP-IV; format: biochemical
T1 construct: The full length cDNAs for human DPP-VII, DPP-VIII, DPP-IX, and FAP were obtained from Open Biosystems; 6xHis (C); made in house
Description: The term “selectivity ratio” refers to the IC50 value generated in a biochemical assay measuring inhibition of DPP-IV compared to the IC50 value generated in a biochemical assay measuring inhibition of another DPP family member (e.g. DPP-VII, DPP-VIII, DPP-IX or FAP) whereby the ratio is obtained by dividing the IC50 value of DPP-VII, DPP-VIII, DPP-IX or FAP by the IC50 value for DPP-IV.
Materials. S9 insect cells and Sf-900 II SFM media were from Invitrogen. Anti-FLAG M2 immunoaffinity gel was from Sigma. Gly-Pro-AMC, Lys-Pro AMC, and Ala-Pro AMC were from Enzyme Systems. IC50 calculations were performed by non-linear regression analysis using Prism software (GraphPad). Preparation of DPP-VII, DPP-VIII, DPP-IX, and FAP baculovirus constructs. The full length cDNAs for human DPP-VII, DPP-VIII, DPP-IX, and FAP were obtained from Open Biosystems. […] Baculovirus was prepared using the Bac-to-Bac Baculovirus Expression System (Invitrogen). The cDNAs in the final baculovirus constructs were sequence verified. Baculovirus expression. […] Infection with DPP-VII, DPP-VIII, DPP-IX, and FAP baculoviral constructs were all performed at an MOI of 4. The infected cells were grown for 48 hours and the cell pellets harvested and frozen until purification. DPP-VII was purified using anti-FLAG immunoaffinity gel according to the manufacturer's instructions. DPP-VIII, DPP-IX, and FAP were purified using a B-PER 6xHis Fusion Protein Column Purification Kit from Pierce. IC50 assay. Recombinant DPPs were diluted in reaction buffer to give fluorescence values of 5000-20000 counts in the “enzyme only wells” 20 min after addition of substrate at 27° C. Reaction buffers were 25 mM (2-(4-Morpholino)-Ethane Sulfonic Acid), pH 5.5 for DPP-VII, 25 mM Tris, pH 8, 1% Triton X-100, 100 mM NaCl for DPP-VIII, and 25 mM Tris pH 8 for DPP-1× and FAP. Test wells in a 96-well microtiter plate contained 88 μL of diluted DPP and 2.5 ul of titrated compound in 50 mM glycine, pH 2.6. “Enzyme only” wells contained 88 uL of diluted DPP and 2.5 ul of glycine buffer. “No enzyme” wells contained 88 uL of reaction buffer without DPP and 2.5 ul of glycine buffer. All assays were done in triplicate. The plate was incubated at 27° C. for 10 min and then cooled on ice for 10 min. Ten microliters of substrate diluted in reaction buffer (40 uM final concentration) without Triton or NaCl were then added to all wells followed by incubation at 27C for 20 min. Substrates were Lys-Pro AMC for DPP-VII, and Ala-Pro AMC for DPP-VIII, DPP-IX, and FAP. Fluorescence in each well was measured at settings of 380/460 nm.

DPP-IV = molecular target: T2, DPP-IV (Sus scrofa, UniProt P22411); assay: DPP-IV fluorometric enzyme inhibition assay (Gly-Pro-AMC); format: biochemical, porcine
T2 construct: from tissue; host or cells: porcine
Experimental: The following methods were used to measure the activities of the compounds of the invention which inhibit the enzymatic activity of DPP-IV. The compounds of the invention are tested for their ability to inhibit the enzyme activity of purified DPP-IV. Briefly, the activity of DPP-IV is measured in vitro by its ability to cleave the synthetic substrate Gly-Pro-AMC. Cleavage of Gly-Pro-AMC by DPP-IV liberates the product AMC (7-amino-4-methyl coumarin), whose rate of appearance is directly proportional to the enzyme activity. Inhibition of the enzyme activity by specific enzyme inhibitors slows down the generation of AMC. […] The accumulation of AMC is measured fluorometrically. […]
Thus, DPP-IV enzyme activity was determined by a fluorometric assay with the substrate Gly-Pro-AMC which is cleaved by DPP-IV to release the fluorescent AMC leaving group. Free AMC (7-amino-4-methyl coumarin) was measured using an excitation wavelength of 380 nm and an emission wavelength of 460 nm with a Victor-II fluorescent reader. […] After 10-minutes substrate was added (10 μl) and allowed to react for 20-minutes at 26° C. before free AMC was measured. IC50 values were determined in triplicate, using a minimum of six different inhibitor concentrations. IC50 values were calculated using Nonlinear Regression Analysis (GraphPad, Prism, San Diego, Calif.). […]

T2 sequence (P22411 whole entry): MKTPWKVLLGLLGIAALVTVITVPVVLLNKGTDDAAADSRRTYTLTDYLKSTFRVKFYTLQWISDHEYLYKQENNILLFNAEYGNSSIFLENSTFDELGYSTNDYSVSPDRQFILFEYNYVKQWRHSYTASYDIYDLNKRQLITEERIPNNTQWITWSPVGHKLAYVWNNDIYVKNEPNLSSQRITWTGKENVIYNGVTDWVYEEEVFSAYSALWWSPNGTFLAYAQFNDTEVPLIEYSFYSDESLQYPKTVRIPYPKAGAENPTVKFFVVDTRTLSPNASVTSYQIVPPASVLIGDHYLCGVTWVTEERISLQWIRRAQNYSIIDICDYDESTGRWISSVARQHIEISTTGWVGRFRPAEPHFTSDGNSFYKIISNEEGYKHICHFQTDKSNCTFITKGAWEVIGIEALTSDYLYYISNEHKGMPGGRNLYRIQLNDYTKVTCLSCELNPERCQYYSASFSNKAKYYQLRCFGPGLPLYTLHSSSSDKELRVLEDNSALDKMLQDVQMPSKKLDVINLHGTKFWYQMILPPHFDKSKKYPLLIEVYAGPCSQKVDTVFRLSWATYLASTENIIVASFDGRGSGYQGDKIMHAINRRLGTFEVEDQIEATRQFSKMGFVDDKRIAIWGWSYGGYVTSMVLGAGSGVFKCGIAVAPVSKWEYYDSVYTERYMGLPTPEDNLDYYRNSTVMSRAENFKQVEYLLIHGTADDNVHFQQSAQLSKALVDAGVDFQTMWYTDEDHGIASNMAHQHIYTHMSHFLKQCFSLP
T1 sequence (Q6V1X1 whole entry): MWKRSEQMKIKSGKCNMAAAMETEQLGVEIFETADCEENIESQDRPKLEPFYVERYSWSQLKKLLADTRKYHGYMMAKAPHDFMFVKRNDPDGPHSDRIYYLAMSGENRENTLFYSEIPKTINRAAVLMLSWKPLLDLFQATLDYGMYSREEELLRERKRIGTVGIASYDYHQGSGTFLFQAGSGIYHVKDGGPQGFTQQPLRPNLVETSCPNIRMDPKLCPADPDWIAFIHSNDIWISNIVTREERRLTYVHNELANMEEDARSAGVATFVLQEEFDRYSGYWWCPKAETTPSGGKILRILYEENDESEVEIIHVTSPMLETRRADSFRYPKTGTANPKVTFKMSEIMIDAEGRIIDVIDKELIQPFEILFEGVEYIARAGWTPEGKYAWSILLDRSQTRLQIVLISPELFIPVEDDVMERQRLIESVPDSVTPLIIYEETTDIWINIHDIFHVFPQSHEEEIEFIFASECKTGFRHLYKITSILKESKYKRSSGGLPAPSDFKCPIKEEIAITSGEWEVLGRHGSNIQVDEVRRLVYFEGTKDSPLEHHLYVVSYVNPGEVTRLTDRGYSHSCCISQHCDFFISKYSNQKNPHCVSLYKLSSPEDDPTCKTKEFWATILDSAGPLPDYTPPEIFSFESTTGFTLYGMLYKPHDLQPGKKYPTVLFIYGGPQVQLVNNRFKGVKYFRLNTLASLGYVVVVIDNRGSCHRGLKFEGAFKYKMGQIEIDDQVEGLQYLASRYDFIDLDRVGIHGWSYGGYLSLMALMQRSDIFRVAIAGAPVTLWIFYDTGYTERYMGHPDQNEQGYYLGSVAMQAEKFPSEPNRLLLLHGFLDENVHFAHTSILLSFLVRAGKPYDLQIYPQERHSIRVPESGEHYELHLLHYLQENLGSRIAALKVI

## O=C(CNC1CCCC1)N1CCC[C@H]1B(O)O [Compound 19]
DPP-VIII
  inhibition of DPP-VIII (in words): potent inhibitor
DPP-IV
  inhibition of DPP-IV (in words): potent inhibitor
